Assay results: the supplement of paper PMC10307832

Experiments:
Experiment in all cases: relative viability (nuclei count vs DMSO), 5 days (fraction); higher = more cells survive
Adavosertib + Vorinostat = compound: C=CCn1c(=O)c2cnc(Nc3ccc(N4CCN(C)CC4)cc3)nc2n1-c1cccc(C(C)(C)O)n1 [Adavosertib] + O=C(CCCCCCC(=O)Nc1ccccc1)NO [Vorinostat] (partner 1 µM)
How it was run: (§1)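 A single step with final 0.05% Triton X-100, 1% formaldehyde and 1 ug/ml Hoechst fixed the cells and stained nuclei 5 days after treatment. Lung cancer cell lines in 1536-well plates had been treated by pin tool the day after seeding with one drug alone or a fixed anchor-drug dose plus five library-drug doses (not always all listed) in √10 steps, and nuclei were counted on 4× images. Relative viability is the ratio of nuclei in treated wells to nuclei in vehicle wells, taken as the median of duplicate plates.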

Adavosertib + Foretinib = compound: C=CCn1c(=O)c2cnc(Nc3ccc(N4CCN(C)CC4)cc3)nc2n1-c1cccc(C(C)(C)O)n1 [Adavosertib] + COc1cc2c(Oc3ccc(NC(=O)C4(C(=O)Nc5ccc(F)cc5)CC4)cc3F)ccnc2cc1OCCCN1CCOCC1 [Foretinib] (partner 0.25 µM)
How it was run: as §1

Nelarabine + Navitoclax = compound: COc1nc(N)nc2c1ncn2[C@@H]1O[C@H](CO)[C@@H](O)[C@@H]1O [Nelarabine] + CC1(C)CCC(c2ccc(Cl)cc2)=C(CN2CCN(c3ccc(C(=O)NS(=O)(=O)c4ccc(N[C@H](CCN5CCOCC5)CSc5ccccc5)c(S(=O)(=O)C(F)(F)F)c4)cc3)CC2)C1 [Navitoclax] (partner 0.5 µM)
How it was run: as §1

Nelarabine + Trametinib = compound: COc1nc(N)nc2c1ncn2[C@@H]1O[C@H](CO)[C@@H](O)[C@@H]1O [Nelarabine] + CC(=O)Nc1cccc(-n2c(=O)n(C3CC3)c(=O)c3c(Nc4ccc(I)cc4F)n(C)c(=O)c(C)c32)c1 [Trametinib] (partner 0.02 µM)
How it was run: as §1

Row | Cell Line | relative viability (Adavosertib + Vorinostat; first compound 0.01 µM) | relative viability (Adavosertib + Vorinostat; first compound 0.03162 µM) | relative viability (Adavosertib + Vorinostat; first compound 0.1 µM) | relative viability (Adavosertib + Vorinostat; first compound 0.3162 µM) | relative viability (Adavosertib + Foretinib; first compound 0.01 µM) | relative viability (Adavosertib + Foretinib; first compound 0.03162 µM) | relative viability (Adavosertib + Foretinib; first compound 0.1 µM) | relative viability (Adavosertib + Foretinib; first compound 0.3162 µM) | relative viability (Nelarabine + Navitoclax; first compound 0.01 µM) | relative viability (Nelarabine + Navitoclax; first compound 0.03162 µM) | relative viability (Nelarabine + Navitoclax; first compound 0.1 µM) | relative viability (Nelarabine + Navitoclax; first compound 0.3162 µM) | relative viability (Nelarabine + Navitoclax; first compound 1 µM) | relative viability (Nelarabine + Trametinib; first compound 0.01 µM) | relative viability (Nelarabine + Trametinib; first compound 0.03162 µM) | relative viability (Nelarabine + Trametinib; first compound 0.1 µM) | relative viability (Nelarabine + Trametinib; first compound 0.3162 µM) | relative viability (Nelarabine + Trametinib; first compound 1 µM)
1 | NCI-H2347 | 0.548 | 0.71 | 0.615 | 0.533 | 0.829 | 0.926 | 0.697 | 0.989 | 0.955 | 0.799 | 0.782 | 0.782 | 0.939 | 0.338 | 0.3 | 0.307 | 0.304 | 0.27
2 | NCI-H1793 | 0.695 | 0.739 | 0.581 | 0.745 | 0.633 | 0.599 | 0.644 | 0.508 | 0.46 | 0.552 | 0.433 | 0.47 | 0.385 | 0.474 |  | 0.421 | 0.424 | 0.466
3 | LU99A | 0.485 | 0.486 | 0.462 | 0.307 | 0.86 | 0.779 | 0.771 | 0.579 | 0.918 | 0.821 | 0.845 | 0.765 | 0.758 | 0.548 | 0.552 | 0.554 | 0.561 | 0.599
4 | NCI-H661 | 0.847 | 0.809 | 0.764 | 0.351 | 1.07 | 1.07 | 1.12 | 0.839 |  |  |  |  |  | 0.651 | 0.718 | 0.628 | 0.668 | 0.756
5 | SW 900 | 0.445 | 0.492 | 0.424 | 0.268 |  | 0.727 | 0.853 | 0.907 |  |  |  |  |  | 0.642 | 0.778 | 0.765 | 0.777 | 0.753
6 | HCC-827 | 0.716 | 0.868 | 0.873 | 0.885 | 1.07 | 1.09 | 1.09 | 0.929 | 1.02 | 0.886 | 0.91 | 0.797 | 0.705 | 0.537 | 0.559 | 0.521 | 0.454 | 0.478
7 | A-427 | 0.872 | 0.865 | 0.831 | 0.705 | 0.929 | 1.02 | 1.09 | 0.851 | 1.05 | 1.02 | 0.916 | 0.897 | 0.912 | 0.835 | 0.772 | 0.728 | 0.721 | 0.773
8 | EBC-1 |  |  |  |  | 0.111 | 0.101 | 0.115 | 0.0875 | 0.403 | 0.261 | 0.375 | 0.432 | 0.381 |  |  |  |  | 
9 | NCI-H2009 | 0.829 | 0.743 | 0.9 | 0.676 | 1.17 | 1.21 | 1.26 | 1.2 | 1.26 | 1.18 | 1.19 | 1.2 | 1.18 | 0.28 | 0.224 | 0.215 | 0.287 | 0.266
10 | EPLC-272H | 0.384 | 0.481 | 0.281 | 0.14 | 0.674 | 0.681 | 0.591 | 0.247 | 1.33 | 1.35 | 1.43 | 0.954 | 1.08 | 0.293 | 0.307 | 0.317 | 0.274 | 0.293
11 | LC-2-ad | 0.708 | 0.661 | 0.736 | 0.704 | 0.823 | 0.995 | 0.958 | 0.889 | 0.619 | 0.384 | 0.519 | 0.434 | 0.452 | 1.09 | 1.01 | 0.922 | 0.993 | 0.899
12 | NCI-H650 | 0.367 | 0.428 | 0.443 | 0.333 | 1.06 | 1.01 | 1.06 | 0.889 |  |  |  |  |  | 1.05 | 0.805 | 0.922 | 1.01 | 1.06
13 | NCI-H2342 | 0.679 | 0.833 | 0.741 | 0.864 | 1.14 | 1.18 | 1.19 | 1.04 |  |  |  |  |  | 0.87 | 0.825 | 0.847 | 0.701 | 0.907
14 | NCI-H1648 | 0.498 | 0.407 | 0.419 | 0.532 |  |  |  |  |  |  |  |  |  |  | 0.656 |  | 0.451 | 0.477
15 | NCI-H1563 |  |  |  |  | 0.882 | 0.949 | 1.05 | 0.931 |  |  |  |  |  |  |  |  |  | 
16 | NCI-H1623 |  |  |  |  | 0.863 | 0.863 | 0.854 | 0.933 |  |  |  |  |  |  |  |  |  | 
17 | A549 |  |  |  |  | 1.04 | 0.984 | 1.24 | 0.838 | 1.56 | 1.29 | 1.24 | 1.17 | 1.18 |  |  |  |  | 
18 | NCI-H522 | 0.875 | 0.968 | 1.02 | 0.871 |  |  |  |  |  |  |  |  |  | 0.82 | 1.03 | 0.662 | 0.726 | 0.742
19 | NCI-H1703 |  |  |  |  | 0.399 | 0.43 | 0.335 | 0.203 | 1.28 | 0.936 | 1.24 | 1.18 | 1.18 |  |  |  |  | 
20 | NCI-H1299 |  |  |  |  | 1.08 | 1.11 | 1.1 | 0.437 | 1.09 | 1.06 | 1.1 | 1.07 | 1.08 |  |  |  |  | 
21 | ABC-1 | 1.17 | 1.26 | 1.1 | 1.44 | 0.909 | 1.31 | 1.39 | 1.03 |  |  |  |  |  |  |  |  |  | 
